Legend:
Experiment in all cases: Kinase selectivity: percentage inhibition of each specific kinase at 1 μM inhibitor concentration
Format in all cases: biochemical
[1] = target: each specific kinase (kinase selectivity panel, Table 2) (Homo sapiens, UniProt P06239); conditions: Lck
Experimental: (§1) Values are expressed as percentage inhibition of the each specific kinase at 1 μM inhibitor concentration.

[2] = target: each specific kinase (kinase selectivity panel, Table 2) (Homo sapiens, UniProt Q15831); conditions: LKB1
Experimental: as §1

[3] = target: each specific kinase (kinase selectivity panel, Table 2) (Homo sapiens, UniProt P27361); conditions: ERK1
Experimental: as §1

[4] = target: each specific kinase (kinase selectivity panel, Table 2) (Homo sapiens, UniProt P54753); conditions: EPH-B3
Experimental: as §1

[5] = target: each specific kinase (kinase selectivity panel, Table 2) (Homo sapiens, UniProt Q8IW41); conditions: PRAK
Experimental: as §1

[6] = target: each specific kinase (kinase selectivity panel, Table 2) (Homo sapiens, UniProt Q13188); conditions: MST2
Experimental: as §1

[7] = target: each specific kinase (kinase selectivity panel, Table 2) (Homo sapiens, UniProt P41240); conditions: CSK
Experimental: as §1

[8] = target: each specific kinase (kinase selectivity panel, Table 2) (Homo sapiens, UniProt P51955); conditions: NEK2a
Experimental: as §1

[9] = target: each specific kinase (kinase selectivity panel, Table 2) (Homo sapiens, UniProt P11309); conditions: PIM1
Experimental: as §1

[10] = target: each specific kinase (kinase selectivity panel, Table 2) (Homo sapiens, UniProt P17612); conditions: PKA
Experimental: as §1

[11] = target: each specific kinase (kinase selectivity panel, Table 2) (Homo sapiens, UniProt Q15139); conditions: PKD1
Experimental: as §1

[12] = target: each specific kinase (kinase selectivity panel, Table 2) (Homo sapiens, UniProt O14965); conditions: Aurora A
Experimental: as §1

[13] = target: each specific kinase (kinase selectivity panel, Table 2) (Homo sapiens, UniProt Q9BUB5); conditions: MNK1
Experimental: as §1

[14] = target: each specific kinase (kinase selectivity panel, Table 2) (Homo sapiens, UniProt P14616); conditions: IRR
Experimental: as §1

[15] = target: each specific kinase (kinase selectivity panel, Table 2) (Homo sapiens, UniProt Q02750); conditions: MKK1
Experimental: as §1

[16] = target: each specific kinase (kinase selectivity panel, Table 2) (Homo sapiens, UniProt P23443); conditions: S6K1
Experimental: as §1

[17] = target: each specific kinase (kinase selectivity panel, Table 2) (Homo sapiens, UniProt Q13233); conditions: MEKK1
Experimental: as §1

[18] = target: each specific kinase (kinase selectivity panel, Table 2) (Homo sapiens, UniProt Q16513); conditions: PRK2
Experimental: as §1

Sequence of each specific kinase (kinase selectivity panel, Table 2) (Homo sapiens, UniProt Q13233) (Q13233 whole entry): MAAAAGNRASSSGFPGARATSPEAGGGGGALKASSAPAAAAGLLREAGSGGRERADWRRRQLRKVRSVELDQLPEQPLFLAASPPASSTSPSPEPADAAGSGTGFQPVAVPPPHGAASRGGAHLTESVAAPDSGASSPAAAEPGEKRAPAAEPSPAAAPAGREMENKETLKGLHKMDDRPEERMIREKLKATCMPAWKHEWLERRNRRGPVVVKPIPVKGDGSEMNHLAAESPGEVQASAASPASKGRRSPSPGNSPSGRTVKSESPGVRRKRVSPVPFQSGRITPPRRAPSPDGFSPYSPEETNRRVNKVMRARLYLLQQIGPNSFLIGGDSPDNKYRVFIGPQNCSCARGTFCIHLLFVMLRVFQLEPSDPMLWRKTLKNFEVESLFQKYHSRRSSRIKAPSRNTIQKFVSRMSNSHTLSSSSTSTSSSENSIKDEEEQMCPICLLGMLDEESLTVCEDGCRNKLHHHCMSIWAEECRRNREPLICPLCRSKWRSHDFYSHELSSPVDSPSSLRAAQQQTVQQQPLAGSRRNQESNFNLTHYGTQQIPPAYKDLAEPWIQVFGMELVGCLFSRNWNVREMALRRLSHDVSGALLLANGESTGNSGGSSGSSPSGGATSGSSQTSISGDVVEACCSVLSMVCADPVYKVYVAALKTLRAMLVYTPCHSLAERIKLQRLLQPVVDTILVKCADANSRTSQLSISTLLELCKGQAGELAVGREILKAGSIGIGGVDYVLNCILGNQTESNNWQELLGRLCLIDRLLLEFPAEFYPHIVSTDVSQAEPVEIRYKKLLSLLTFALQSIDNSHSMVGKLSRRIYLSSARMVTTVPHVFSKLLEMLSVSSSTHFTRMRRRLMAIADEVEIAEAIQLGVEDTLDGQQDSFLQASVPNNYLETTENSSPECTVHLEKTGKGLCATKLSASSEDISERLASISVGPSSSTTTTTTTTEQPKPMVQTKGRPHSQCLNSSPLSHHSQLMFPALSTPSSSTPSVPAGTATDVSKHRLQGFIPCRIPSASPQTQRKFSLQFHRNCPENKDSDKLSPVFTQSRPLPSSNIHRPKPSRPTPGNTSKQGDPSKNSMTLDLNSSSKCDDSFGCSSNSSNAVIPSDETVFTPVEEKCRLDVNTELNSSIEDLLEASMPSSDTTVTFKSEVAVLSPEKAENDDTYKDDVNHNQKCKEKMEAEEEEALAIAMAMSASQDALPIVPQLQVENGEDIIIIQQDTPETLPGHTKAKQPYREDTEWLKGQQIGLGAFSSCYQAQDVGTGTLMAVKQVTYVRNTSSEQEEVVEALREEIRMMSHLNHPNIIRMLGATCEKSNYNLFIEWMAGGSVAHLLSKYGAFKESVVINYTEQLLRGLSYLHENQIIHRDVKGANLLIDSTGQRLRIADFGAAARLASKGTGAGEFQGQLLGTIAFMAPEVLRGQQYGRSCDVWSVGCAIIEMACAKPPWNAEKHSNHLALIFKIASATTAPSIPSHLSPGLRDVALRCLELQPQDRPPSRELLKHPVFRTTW
Sequence of each specific kinase (kinase selectivity panel, Table 2) (Homo sapiens, UniProt Q02750) (Q02750 whole entry): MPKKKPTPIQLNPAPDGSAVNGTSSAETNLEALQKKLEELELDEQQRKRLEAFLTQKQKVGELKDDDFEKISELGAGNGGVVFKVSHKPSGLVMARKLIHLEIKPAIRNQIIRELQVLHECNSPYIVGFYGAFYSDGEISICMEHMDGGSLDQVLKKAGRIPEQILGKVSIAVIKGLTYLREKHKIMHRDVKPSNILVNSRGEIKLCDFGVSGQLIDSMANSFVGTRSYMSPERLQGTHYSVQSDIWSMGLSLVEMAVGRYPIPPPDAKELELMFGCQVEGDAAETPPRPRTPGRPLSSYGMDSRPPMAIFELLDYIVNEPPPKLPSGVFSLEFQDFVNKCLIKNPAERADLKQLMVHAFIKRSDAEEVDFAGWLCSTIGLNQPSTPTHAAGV
Sequence of each specific kinase (kinase selectivity panel, Table 2) (Homo sapiens, UniProt Q13188) (Q13188 whole entry): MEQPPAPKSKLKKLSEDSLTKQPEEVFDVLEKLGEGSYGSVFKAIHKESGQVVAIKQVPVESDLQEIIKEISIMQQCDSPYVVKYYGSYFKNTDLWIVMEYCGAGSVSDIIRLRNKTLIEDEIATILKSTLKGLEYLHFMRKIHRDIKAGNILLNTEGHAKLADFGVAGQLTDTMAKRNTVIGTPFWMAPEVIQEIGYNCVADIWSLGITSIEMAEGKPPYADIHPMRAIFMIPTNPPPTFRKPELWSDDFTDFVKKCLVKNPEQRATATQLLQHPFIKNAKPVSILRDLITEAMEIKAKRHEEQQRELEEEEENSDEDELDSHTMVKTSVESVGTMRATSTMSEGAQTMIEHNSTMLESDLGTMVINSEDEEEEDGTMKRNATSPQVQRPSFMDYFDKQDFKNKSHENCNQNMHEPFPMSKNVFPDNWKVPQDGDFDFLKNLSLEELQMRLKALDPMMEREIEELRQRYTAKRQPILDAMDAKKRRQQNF
Sequence of each specific kinase (kinase selectivity panel, Table 2) (Homo sapiens, UniProt Q9BUB5) (Q9BUB5 whole entry): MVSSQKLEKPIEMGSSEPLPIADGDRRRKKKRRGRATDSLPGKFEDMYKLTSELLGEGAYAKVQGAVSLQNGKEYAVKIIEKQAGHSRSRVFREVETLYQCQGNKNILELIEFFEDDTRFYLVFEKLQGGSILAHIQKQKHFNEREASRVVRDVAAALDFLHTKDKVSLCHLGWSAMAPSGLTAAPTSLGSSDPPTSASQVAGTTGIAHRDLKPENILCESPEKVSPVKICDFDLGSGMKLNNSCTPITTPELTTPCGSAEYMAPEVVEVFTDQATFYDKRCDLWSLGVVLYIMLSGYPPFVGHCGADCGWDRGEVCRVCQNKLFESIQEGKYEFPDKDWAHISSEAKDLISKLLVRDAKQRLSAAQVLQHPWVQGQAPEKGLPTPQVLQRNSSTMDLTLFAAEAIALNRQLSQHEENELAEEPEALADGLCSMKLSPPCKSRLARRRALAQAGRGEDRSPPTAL
Sequence of each specific kinase (kinase selectivity panel, Table 2) (Homo sapiens, UniProt Q15831) (Q15831 whole entry): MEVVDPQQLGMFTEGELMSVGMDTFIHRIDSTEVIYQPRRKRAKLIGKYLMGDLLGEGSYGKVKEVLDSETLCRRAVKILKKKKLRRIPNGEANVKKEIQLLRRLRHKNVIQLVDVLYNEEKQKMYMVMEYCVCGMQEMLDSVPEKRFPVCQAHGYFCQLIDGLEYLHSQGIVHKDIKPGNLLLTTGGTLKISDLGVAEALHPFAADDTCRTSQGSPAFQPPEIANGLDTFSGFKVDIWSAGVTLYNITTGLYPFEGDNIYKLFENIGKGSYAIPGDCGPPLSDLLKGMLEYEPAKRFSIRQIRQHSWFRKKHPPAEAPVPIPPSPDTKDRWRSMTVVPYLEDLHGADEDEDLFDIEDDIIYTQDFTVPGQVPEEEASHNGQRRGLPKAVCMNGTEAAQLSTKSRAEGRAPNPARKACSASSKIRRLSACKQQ
Sequence of each specific kinase (kinase selectivity panel, Table 2) (Homo sapiens, UniProt P11309) (P11309 whole entry): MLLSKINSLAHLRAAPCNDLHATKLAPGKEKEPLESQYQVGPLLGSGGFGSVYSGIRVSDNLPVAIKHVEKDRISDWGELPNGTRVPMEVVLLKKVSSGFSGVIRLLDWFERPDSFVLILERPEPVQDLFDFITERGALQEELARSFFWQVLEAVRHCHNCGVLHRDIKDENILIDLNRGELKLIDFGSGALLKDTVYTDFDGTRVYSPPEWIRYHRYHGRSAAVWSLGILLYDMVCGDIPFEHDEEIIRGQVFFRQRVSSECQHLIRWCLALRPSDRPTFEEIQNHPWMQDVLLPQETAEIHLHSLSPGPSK
Sequence of each specific kinase (kinase selectivity panel, Table 2) (Homo sapiens, UniProt P23443) (P23443 whole entry): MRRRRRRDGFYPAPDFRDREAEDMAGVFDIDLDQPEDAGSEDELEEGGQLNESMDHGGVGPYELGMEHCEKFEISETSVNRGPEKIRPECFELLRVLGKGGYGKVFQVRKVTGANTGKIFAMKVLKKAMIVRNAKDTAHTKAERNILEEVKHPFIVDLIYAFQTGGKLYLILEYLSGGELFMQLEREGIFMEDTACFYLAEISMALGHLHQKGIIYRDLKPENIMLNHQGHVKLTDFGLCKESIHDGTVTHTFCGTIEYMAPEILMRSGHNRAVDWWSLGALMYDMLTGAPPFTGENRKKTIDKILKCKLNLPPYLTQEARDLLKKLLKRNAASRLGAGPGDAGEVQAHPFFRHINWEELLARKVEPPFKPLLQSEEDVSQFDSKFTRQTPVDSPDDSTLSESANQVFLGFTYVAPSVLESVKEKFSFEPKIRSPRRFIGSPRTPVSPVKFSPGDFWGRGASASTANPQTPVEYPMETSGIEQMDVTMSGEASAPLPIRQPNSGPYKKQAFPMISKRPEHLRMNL
Sequence of each specific kinase (kinase selectivity panel, Table 2) (Homo sapiens, UniProt O14965) (O14965 whole entry): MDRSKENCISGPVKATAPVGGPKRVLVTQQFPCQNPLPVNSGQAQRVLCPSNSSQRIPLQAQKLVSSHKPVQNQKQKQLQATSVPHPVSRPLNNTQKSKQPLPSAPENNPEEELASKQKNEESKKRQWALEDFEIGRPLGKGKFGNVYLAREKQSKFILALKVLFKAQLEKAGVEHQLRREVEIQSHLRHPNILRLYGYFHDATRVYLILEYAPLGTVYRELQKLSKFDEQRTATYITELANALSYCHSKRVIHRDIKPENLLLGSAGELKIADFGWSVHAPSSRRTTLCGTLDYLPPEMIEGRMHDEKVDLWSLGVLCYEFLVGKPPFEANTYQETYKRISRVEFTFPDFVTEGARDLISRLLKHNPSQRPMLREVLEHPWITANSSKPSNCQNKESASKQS
Sequence of each specific kinase (kinase selectivity panel, Table 2) (Homo sapiens, UniProt P27361) (P27361 whole entry): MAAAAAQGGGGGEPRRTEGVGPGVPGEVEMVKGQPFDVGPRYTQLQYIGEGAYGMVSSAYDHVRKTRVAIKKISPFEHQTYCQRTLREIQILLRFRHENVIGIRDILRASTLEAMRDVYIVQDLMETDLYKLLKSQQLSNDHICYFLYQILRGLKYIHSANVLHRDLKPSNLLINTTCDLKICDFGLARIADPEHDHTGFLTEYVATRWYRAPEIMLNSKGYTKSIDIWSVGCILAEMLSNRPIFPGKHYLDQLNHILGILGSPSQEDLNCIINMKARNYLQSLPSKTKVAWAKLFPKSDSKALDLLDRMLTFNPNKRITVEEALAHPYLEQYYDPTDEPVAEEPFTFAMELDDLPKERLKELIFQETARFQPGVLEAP

Row | Compound | percentage inhibition of Lck [1] [percentage] | percentage inhibition of LKB1 [2] [percentage] | percentage inhibition of ERK1 [3] [percentage] | percentage inhibition of EPH-B3 [4] [percentage] | percentage inhibition of PRAK [5] [percentage] | percentage inhibition of MST2 [6] [percentage] | percentage inhibition of CSK [7] [percentage] | percentage inhibition of NEK2a [8] [percentage] | percentage inhibition of PIM1 [9] [percentage] | percentage inhibition of PKA [10] [percentage] | percentage inhibition of PKD1 [11] [percentage] | percentage inhibition of Aurora A [12] [percentage] | percentage inhibition of MNK1 [13] [percentage] | percentage inhibition of IRR [14] [percentage] | percentage inhibition of MKK1 [15] [percentage] | percentage inhibition of S6K1 [16] [percentage] | percentage inhibition of MEKK1 [17] [percentage] | percentage inhibition of PRK2 [18] [percentage]
1 | CC[C@H](C)Oc1nccc2[nH]nc(C)c12 [Example 121, 4-((S)-sec-Butoxy)-3-methyl-1H-pyrazolo[4,3-c]pyridine] | 0 | 42 | 1 | 6 | 0 | 55 | 6 | 0 | 15 | 26 | 29 | 46 | 1 | 22 | 47 | 0 | 0 | 39
2 | O=C(CCc1n[nH]c2ccnc(NC3CCCCC3)c12)N1CCC[C@H](c2ccccc2)C1 [Example 172, 3-(4-Cyclohexylamino-1H-pyrazolo[4,3-c]pyridin-3-yl)-1-((R)-3-phenyl-piperidin-1-yl)-propan-1-one] | 25 | 8 | 0 | 3 | 0 | 10 | 11 | 5 | 0 | 5 | 1 | 0 | 0 | 15 | 17 | 14 | 7 | 16
